# In patent publication US20080280862A1, “Methods, compositions, and kits for the treatment of pain” (priority 2007, published 2008):
# System: formalin-induced pain model in rats
# Experiment: Formalin pain model, nociceptive behaviors
# Type: in vivo, Sprague-Dawley rats
# Conditions: Experiment Two
# Experimental: The formalin model is a fast, reliable model used to assess potential analgesics ability to block inflammatory pain. The analgesic effects of test article combinations on pain generation are assayed using the formalin-induced pain model in rats. Adult male Sprague-Dawley rats are administered intraperitoneally study drugs (vehicle, TCA, steroid or TCA/Steroid test article combinations) once daily for 2 days (day −2 and day −1) and 30 minutes prior to the formalin injection day on day 0 (time=0). […] To elicit a pain response, dilute formalin (2% in saline) is injected under the skin of the plantar surface of the right hindpaw. The animal is placed in an observation chamber. The pain response is a characteristic biphasic response pattern of nociceptive behaviors (lifting, licking, and biting of the injected paw). Two distinct periods of nociceptive behaviors/activity are observed and recorded: an early phase (phase I) lasting the first 5-10 min and a late phase (phase II) lasting 20-40 min after the injection of formalin. One hour of data is collected (time spent displaying pain behavior) by a blinded observer using a stopwatch. Results are expressed as the number of pain behaviors per 5 minute periods (Table 8 and Table 9).
smiles,measurement,setting,value
C[C@]12C=CC(=O)C=C1CC[C@@H]1[C@@H]2[C@@H](O)C[C@@]2(C)[C@H]1CC[C@]2(O)C(=O)CO [Prednisolone],Mean number of behaviors per 5 minute block,"1 mg/kg, 5 minutes",224.0 ± 34.1
same,Mean number of behaviors per 5 minute block,"1 mg/kg, 10 minutes",27.0 ± 11.7
same,Mean number of behaviors per 5 minute block,"1 mg/kg, 15 minutes",18.0 ± 15.2
same,Mean number of behaviors per 5 minute block,"1 mg/kg, 20 minutes",115.0 ± 41.9
same,Mean number of behaviors per 5 minute block,"1 mg/kg, 25 minutes",172.0 ± 51.1
same,Mean number of behaviors per 5 minute block,"1 mg/kg, 30 minutes",178.0 ± 52.0
same,Mean number of behaviors per 5 minute block,"1 mg/kg, 35 minutes",174.0 ± 48.7
same,Mean number of behaviors per 5 minute block,"1 mg/kg, 40 minutes",207.0 ± 43.9
same,Mean number of behaviors per 5 minute block,"1 mg/kg, 45 minutes",197.0 ± 45.3
same,Mean number of behaviors per 5 minute block,"1 mg/kg, 50 minutes",192.0 ± 48.4
same,Mean number of behaviors per 5 minute block,"1 mg/kg, 55 minutes",113.0 ± 43.2
same,Mean number of behaviors per 5 minute block,"1 mg/kg, 60 minutes",92.0 ± 29.7
same,Mean number of behaviors per 5 minute block,"3 mg/kg, 5 minutes",218.0 ± 14.7
same,Mean number of behaviors per 5 minute block,"3 mg/kg, 10 minutes",15.0 ± 6.7
same,Mean number of behaviors per 5 minute block,"3 mg/kg, 15 minutes",6.0 ± 3.4
same,Mean number of behaviors per 5 minute block,"3 mg/kg, 20 minutes",68.0 ± 19.8
same,Mean number of behaviors per 5 minute block,"3 mg/kg, 25 minutes",208.0 ± 35.5
same,Mean number of behaviors per 5 minute block,"3 mg/kg, 30 minutes",214.0 ± 39.8
same,Mean number of behaviors per 5 minute block,"3 mg/kg, 35 minutes",254.0 ± 29.2
same,Mean number of behaviors per 5 minute block,"3 mg/kg, 40 minutes",269.0 ± 14.2
same,Mean number of behaviors per 5 minute block,"3 mg/kg, 45 minutes",258.0 ± 19.9
same,Mean number of behaviors per 5 minute block,"3 mg/kg, 50 minutes",221.0 ± 36.1
same,Mean number of behaviors per 5 minute block,"3 mg/kg, 55 minutes",198.0 ± 38.1
same,Mean number of behaviors per 5 minute block,"3 mg/kg, 60 minutes",133.0 ± 46.8
